Results taken from patent US9216991B2 (Ares Trading S.A., priority 2012, dated 2015).

Biological target: T1, IRAK4 (Homo sapiens, UniProt Q9NWZ3)
T1 construct: His (N); TEV cleavage site (N)
T1 sequence (Q9NWZ3 1-460): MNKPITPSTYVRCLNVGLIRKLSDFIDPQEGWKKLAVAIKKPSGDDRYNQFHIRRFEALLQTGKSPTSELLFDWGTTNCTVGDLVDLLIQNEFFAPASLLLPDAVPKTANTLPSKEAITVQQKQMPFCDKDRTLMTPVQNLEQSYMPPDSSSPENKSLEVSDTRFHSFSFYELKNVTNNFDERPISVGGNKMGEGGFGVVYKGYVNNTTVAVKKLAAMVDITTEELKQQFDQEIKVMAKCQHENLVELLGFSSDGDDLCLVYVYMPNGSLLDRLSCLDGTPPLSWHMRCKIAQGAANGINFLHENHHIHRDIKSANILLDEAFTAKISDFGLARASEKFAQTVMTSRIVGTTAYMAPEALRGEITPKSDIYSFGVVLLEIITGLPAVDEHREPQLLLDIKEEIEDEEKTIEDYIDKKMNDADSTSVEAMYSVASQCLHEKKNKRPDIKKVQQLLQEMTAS
Experiment: IRAK4 Enzymatic Assay
Assay type: biochemical
Conditions: His-TEV-IRAK4 20 ng/well, ATP 2 μM, STK1-biotin peptide 300 nM, 3 hours at 30° C., FlashPlate radioactivity
Procedure, shortened: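 Radiometric FlashPlate readout: biotin-STK1 substrate (300 nM) captured on streptavidin after EDTA stop and washes. Reaction used His-TEV-IRAK4 (20 ng/well), 2 μM [^33P]-spiked ATP and compound (1 nM-20 μM), incubated 3 h at 30 °C in 50 mM HEPES pH 7.0, 10 mM MgCl2, 5 mM MnCl2, 2 mM DTT.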

IC50 [nM]	SMILES
< 100	Cn1cc(-c2cccc(-c3ncc(-c4cnn([C@H]5CC[C@H](O)CC5)c4)cn3)c2)cn1 [Example 182, Trans-4-(4-{2-[3-(1-Methyl-1H-pyrazol-4-yl)-phenyl]-pyrimidin-5-yl}-pyrazol-1-yl)-cyclohexanol]
100 to 1000	CC(CO)NC(=O)[C@H]1CC[C@H](n2cc(-c3cnc(-c4cccc(-c5cnn(C)c5)c4)nc3)cn2)CC1 (stereo partly drawn) [Example 188, trans-4-(4-{2-[3-(1-Methyl-1H-pyrazol-4-yl)-phenyl]-pyrimidin-5-yl}-pyrazol-1-yl)-cyclohexanecarboxylic acid (2-hydroxy-1-methyl-ethyl)-amide]
< 100	Cn1cc(-c2cccc(-c3ncc(-c4cnn([C@H]5CC[C@H](C(=O)NCCCO)CC5)c4)cn3)c2)cn1 [Example 190, Trans-4-(4-{2-[3-(1-Methyl-1H-pyrazol-4-yl)-phenyl]-pyrimidin-5-yl}-pyrazol-1-yl)-cyclohexanecarboxylic acid (3-hydroxy-propyl)-amide]
100 to 1000	CC(=O)N1[C@@H]2COC[C@H]1C[C@H](n1cc(-c3cnc(-c4cccc(-c5cnn(C)c5)c4)nc3)cn1)C2 [Example 193, exo-1-[7-(4-{2-[3-(1-Methyl-1H-pyrazol-4-yl)-phenyl]-pyrimidin-5-yl}-pyrazol-1-yl)-3-oxa-9-aza-bicyclo[3.3.1]non-9-yl]-ethanone]
100 to 1000	Cn1cc(-c2cccc(-c3ncc(-c4cnn(C5CCCC(=O)C5)c4)cn3)c2)cn1 (stereo not drawn) [Example 195, 3-(4-{2-[3-(1-Methyl-1H-pyrazol-4-yl)-phenyl]-pyrimidin-5-yl}-pyrazol-1-yl)-cyclohexanone]
100 to 1000	Cn1cc(-c2cccc(-c3ncc(-c4cnn([C@H]5CC[C@@H](O)CC5)c4)cn3)c2)cn1 [Example 196, Cis-4-(4-{2-[3-(1-Methyl-1H-pyrazol-4-yl)-phenyl]-pyrimidin-5-yl}-pyrazol-1-yl)-cyclohexanol]
< 100	CCNC(=O)[C@H]1CC[C@H](n2cc(-c3cnc(-c4cccc(-c5cnn(C)c5)c4)nc3)cn2)CC1 [Example 197, Trans-4-(4-{2-[3-(1-Methyl-1H-pyrazol-4-yl)-phenyl]-pyrimidin-5-yl}-pyrazol-1-yl)-cyclohexanecarboxylic acid ethylamide]
< 100	C[C@@H](CO)NC(=O)[C@H]1CC[C@H](n2cc(-c3cnc(-c4cccc(-c5cnn(C)c5)c4)nc3)cn2)CC1 [Example 198, Trans-4-(4-{2-[3-(1-Methyl-1H-pyrazol-4-yl)-phenyl]-pyrimidin-5-yl}-pyrazol-1-yl)-cyclohexanecarboxylic acid ((S)-2-hydroxy-1-methyl-ethyl)-amide]
< 100	C[C@H](CO)NC(=O)[C@H]1CC[C@H](n2cc(-c3cnc(-c4cccc(-c5cnn(C)c5)c4)nc3)cn2)CC1 [Example 199, Trans-4-(4-{2-[3-(1-Methyl-1H-pyrazol-4-yl)-phenyl]-pyrimidin-5-yl}-pyrazol-1-yl)-cyclohexanecarboxylic acid ((R)-2-hydroxy-1-methyl-ethyl)-amide]
< 100	Cn1cc(-c2cccc(-c3ncc(-c4cnn([C@H]5CC[C@H](C(N)=O)CC5)c4)cn3)c2)cn1 [Example 206, Trans-4-(4-{2-[3-(1-Methyl-1H-pyrazol-4-yl)-phenyl]-pyrimidin-5-yl}-pyrazol-1-yl)-cyclohexanecarboxylic acid amide]

The next lines start with the molecule.

SMILES	IC50 [nM]
Cn1cc(-c2cccc(-c3ncc(-c4cnn(C5CC6COCC(C5)N6)c4)cn3)c2)cn1 (stereo not drawn) [Example 179, 7-(4-{2-[3-(1-Methyl-1H-pyrazol-4-yl)-phenyl]-pyrimidin-5-yl}-pyrazol-1-yl)-3-oxa-9-aza-bicyclo[3.3.1]nonane]	< 100
Cn1cc(-c2cccc(-c3ncc(-c4cnn([C@@H]5CCCNC5)c4)cn3)c2)cn1 [Example 183, 2-[3-(1-Methyl-1H-pyrazol-4-yl)-phenyl]-5-((R)-1-piperidin-3-yl-1H-pyrazol-4-yl)-pyrimidine]	100 to 1000
Cn1cc(-c2cccc(-c3ncc(-c4cnn([C@H]5CC[C@H](C(=O)NCCO)CC5)c4)cn3)c2)cn1 [Example 184, trans-4-(4-{2-[3-(1-Methyl-1H-pyrazol-4-yl)-phenyl]-pyrimidin-5-yl}-pyrazol-1-yl)-cyclohexanecarboxylic acid (2-hydroxy-ethyl)-amide]	< 100
CN(CCO)C(=O)[C@H]1CC[C@H](n2cc(-c3cnc(-c4cccc(-c5cnn(C)c5)c4)nc3)cn2)CC1 [Example 185, trans-4-(4-{2-[3-(1-Methyl-1H-pyrazol-4-yl)-phenyl]-pyrimidin-5-yl}-pyrazol-1-yl)-cyclohexanecarboxylic acid (2-hydroxy-ethyl)-methyl-amide]	< 100
Cn1cc(-c2cccc(-c3ncc(-c4cnn([C@H]5CC[C@H](C(=O)N6CC[C@@H](O)C6)CC5)c4)cn3)c2)cn1 [Example 186, ((R)-3-Hydroxy-pyrrolidin-1-yl)-[4-(4-{2-[3-(1-methyl-1H-pyrazol-4-yl)-phenyl]-pyrimidin-5-yl}-pyrazol-1-yl)-cyclohexyl]-methanone]	< 100
Cc1cc(-c2cccc(-c3ncc(-c4cnn([C@H]5CC[C@H](C(=O)N(C)C)CC5)c4)cn3)c2)cnn1 [Example 187, trans-4-(4-{2-[3-(6-Methyl-pyridazin-4-yl)-phenyl]-pyrimidin-5-yl}-pyrazol-1-yl)-cyclohexanecarboxylic acid dimethylamide]	< 100
Cn1cc(-c2cccc(-c3ncc(-c4cnn(C5CCC(=O)CC5)c4)cn3)c2)cn1 [Example 189, 4-(4-{2-[3-(1-Methyl-1H-pyrazol-4-yl)-phenyl]-pyrimidin-5-yl}-pyrazol-1-yl)-cyclohexanone]	100 to 1000
CO[C@H]1CCN(C(=O)[C@H]2CC[C@H](n3cc(-c4cnc(-c5cccc(-c6cnn(C)c6)c5)nc4)cn3)CC2)C1 [Example 191, Trans-((S)-3-Methoxy-pyrrolidin-1-yl)-[4-(4-{2-[3-(1-methyl-1H-pyrazol-4-yl)-phenyl]-pyrimidin-5-yl}-pyrazol-1-yl)-cyclohexyl]-methanone]	< 100
Cn1cc(-c2cccc(-c3ncc(-c4cnn([C@H]5CC[C@H](C(=O)NC(C)(C)C)CC5)c4)cn3)c2)cn1 [Example 192, Trans-4-(4-{2-[3-(1-Methyl-1H-pyrazol-4-yl)-phenyl]-pyrimidin-5-yl}-pyrazol-1-yl)-cyclohexanecarboxylic acid tert-butylamide]	< 100
CN(C)C(=O)[C@H]1C[C@H]2COC[C@@H](C1)[C@@H]2n1cc(-c2cnc(-c3cccc(-c4cnn(C)c4)c3)nc2)cn1 [Example 194, cis-cis-9-(4-{2-[3-(1-Methyl-1H-pyrazol-4-yl)-phenyl]-pyrimidin-5-yl}-pyrazol-1-yl)-3-oxa-bicyclo[3.3.1]nonane-7-carboxylic acid dimethylamide]	1000 to 5000
CC(C)N(C)C(=O)[C@H]1CC[C@H](n2cc(-c3cnc(-c4cccc(-c5cnn(C)c5)c4)nc3)cn2)CC1 [Example 200, Trans-4-(4-{2-[3-(1-Methyl-1H-pyrazol-4-yl)-phenyl]-pyrimidin-5-yl}-pyrazol-1-yl)-cyclohexanecarboxylic acid isopropyl-methyl-amide]	< 100
CCC(O)CNC(=O)[C@H]1CC[C@H](n2cc(-c3cnc(-c4cccc(-c5cnn(C)c5)c4)nc3)cn2)CC1 (stereo partly drawn) [Example 203, trans-4-(4-{2-[3-(1-Methyl-1H-pyrazol-4-yl)-phenyl]-pyrimidin-5-yl}-pyrazol-1-yl)-cyclohexanecarboxylic acid (2-hydroxy-butyl)-amide]	< 100
CCN(C)C(=O)[C@H]1CC[C@H](n2cc(-c3cnc(-c4cccc(-c5cnn(C)c5)c4)nc3)cn2)CC1 [Example 204, 4-(4-{2-[3-(1-Methyl-1H-pyrazol-4-yl)-phenyl]-pyrimidin-5-yl}-pyrazol-1-yl)-cyclohexanecarboxylic acid ethyl-methyl-amide]	< 100
Cn1cc(-c2cccc(-c3ncc(-c4cnn([C@H]5CC[C@H](C(=O)N6CC[C@H](O)C6)CC5)c4)cn3)c2)cn1 [Example 205, trans-((S)-3-Hydroxy-pyrrolidin-1-yl)-[4-(4-{2-[3-(1-methyl-1H-pyrazol-4-yl)-phenyl]-pyrimidin-5-yl}-pyrazol-1-yl)-cyclohexyl]-methanone]	< 100
Cn1cc(-c2cccc(-c3ncc(-c4cnn([C@H]5CC[C@H](N6CCOCC6)CC5)c4)cn3)c2)cn1 [Example 208, Trans-4-[4-(4-{2-[3-(1-Methyl-1H-pyrazol-4-yl)-phenyl]-pyrimidin-5-yl}-pyrazol-1-yl)-cyclohexyl]-morpholine]	< 100
Cn1cc(-c2cccc(-c3ncc(-c4cnn([C@H]5CC[C@@H](N6CCOCC6)CC5)c4)cn3)c2)cn1 [Example 209, cis-4-[4-(4-{2-[3-(1-Methyl-1H-pyrazol-4-yl)-phenyl]-pyrimidin-5-yl}-pyrazol-1-yl)-cyclohexyl]-morpholine]	1000 to 5000
Cn1cc(-c2cccc(-c3ncc(-c4cnn(CCNS(C)(=O)=O)c4)cn3)c2)cn1 [Example 210, N-[2-(4-{2-[3-(1-Methyl-1H-pyrazol-4-yl)-phenyl]-pyrimidin-5-yl}-pyrazol-1-yl)-ethyl]-methanesulfonamide]	1000 to 5000
